Experimental data as given in publication PMC7178883, “1,2,4-Triazole-based anticonvulsant agents with additional ROS scavenging activity are effective in a model of pharmacoresistant epilepsy” (Journal of Enzyme Inhibition and Medicinal Chemistry, 2020).
Like-named read-outs stand apart in the source and are kept apart here.

Assays:
[1] = system: 6 Hz-induced psychomotor seizures; experiment: 6 Hz psychomotor seizure test; format: in vivo, mice; conditions: for ED50: Mus musculus, ip; for Protective index (TD50/ED50): TD50 chimney test / ED50 6 Hz test
Method: All experiments on animals were performed in accordance with EU Directive 2010/63/EU for animal experiments and complied with the ARRIVE guidelines. Ethics approval for animal experimentations was obtained from the Local Ethics Committee (Lublin, Poland, approval number: 65/2018). Psychomotor seizures in mice were evoked by current (6 Hz, 0.2 ms rectangular pulse width, 32 mA, 3 s duration) generated by an S48 Square Pulse Stimulator and CCU1 Constant Current Unit (Grass Technologies, West Warwick, RI, USA). After application of ophthalmic anaesthetic (0.5% tetracaine hydrochloride) to the mice corneas, the animals underwent corneal stimulation and were placed separately in plexiglas cages (25 × 15 × 10 cm) for the observation of the presence or absence of psychomotor seizures. The animals were administered with increasing doses of TP-10, TP-315, TP-427, and the anticonvulsant activity of each compound was evaluated as the ED50 value (median effective dose of the drug, which protects 50% of mice against convulsions) calculated using the log-probit method of Litchfield and Wilcoxon[18].

U-87 MG cells [2] = experiment: Cell viability, MTT assay; format: cell-based, human; conditions: 10 µg/ml, 24 h
Method: Viability of glioblastoma cells U-87 MG (ATCC HTB-14) exposed to a fixed dose of 10 µg/ml of TP-10, TP-315, and TP-427 was measured using MTT assay. Stock solutions of the investigated compounds in DMSO were prepared in the concentration of 50 mg/ml. The cells were cultured at 37 °C in a 5% CO2 atmosphere using Eagle’s Minimum Essential Medium (EMEM) supplemented with 10% foetal bovine serum (FBS), 100 U/ml of penicillin, and […] of streptomycin. Suspension of U-87 MG cells at a density of 1 × 10^5 cells/ml was placed in 96-well plate (100 µl in each well) and incubated for 24 h. On the day of the experiment, the medium was removed from wells and replaced with medium containing a fixed concentration (10 µg/ml) of the respective 1,2,4-triazole derivative. After 24 h of incubation, 15 µl of MTT solution (5 mg/mL in PBS) was added to each well and the microplates were incubated for the next 3 h. Crystals of formazan formed in the metabolically active cells were solubilised with 10% SDS solution (100 µl) during overnight incubation and then the absorbance of dissolved formazan was measured at λ = 570 nm using a microplate reader (Epoch, BioTek Instruments, Inc., Winooski, VT, USA). The viability of cells treated with TP-10, TP-315, or TP-427 was expressed as the % of the viability of control cells (i.e. cells incubated without respective compounds). The experiments were run in triplicate and repeated three times. Sample observations and image capturing were performed using Olympus CKX53 microscope coupled with XM10 digital camera (Olympus).

U-87 MG cells [3] = experiment: Total ROS activity assay (flow cytometry); format: cell-based, human; conditions: 10 µg/ml, 24 h; for ROS positive cells: control 90.2%
Method: Total ROS activity was measured using Intracellular Total ROS Activity Assay Kit (ImmunoChemistry Technologies, Bloomington, MN, USA). After 24 h of incubation of glioblastoma cells U-87 MG (ATCC, Manassas, VA, USA) with the test compounds in concentration 10 µg/ml, the medium was removed, the cells were washed twice with the cold PBS solution and the Assay Buffer (provided by the kit manufacturer) was added. Then, cells (at a density of 1 × 10^6 cells/ml) were treated with 10 µl of Total ROS green reagent and incubated for 1 h at 37 °C in a CO2 incubator. After incubation, the cells were subjected to a rinsing procedure using the Assay Buffer. Cells were suspended in 500 µl of the Assay Buffer and analysed using a flow cytometer (BD FACSCanto II flow cytometer) and FACSDiva software (both from BD Biosciences Systems, San Jose, CA, USA).

U-87 MG cells [4] = experiment: Mitochondrial membrane potential, JC-1 dye (flow cytometry); format: cell-based, human; conditions: 10 μg/ml, 24 h, control 5.0%
Method: Mitochondrial membrane potential changes (ΔMMP) were assessed using the JC-1 MitoScreen Kit (BD Biosciences Systems, San Jose, CA, USA) as described previously. Sample of 10^6 cells/ml was suspended in a buffer mixture and incubated for 15 min at 37 °C with JC-1 dye provided by the kit manufacturer. Subsequently, the cells were washed and resuspended in a buffer. Samples prepared in this way were subjected to cytometric analysis using a cytometer BD FACSCanto II and FACSDiva software (both from BD Biosciences Systems, San Jose, CA, USA).

hCA II = target: T1, hCA II (Homo sapiens, UniProt P00918); experiment: Carbonic anhydrase inhibition, stopped flow CO2 hydration; format: biochemical
T1 construct: made in house
Method: Carbonic anhydrase catalysed CO2 hydration activity was measured using an Applied Photophysics stopped-flow spectrometer. […] The uncatalyzed rates were determined in the same manner and subtracted from the total observed rates. Stock solutions of inhibitor (0.1 mM) were prepared in distilled-deionized water and dilutions up to 0.01 nM were done thereafter with the assay buffer. […] The inhibition constants were obtained by non-linear least-squares methods using PRISM 3 and the Cheng–Prusoff equation and represent the mean from at least three different determinations. All CA isoforms were recombinant ones obtained in-house[21]^,[22].

[5] = system: human recombinant acetylcholinesterase (hrAChE); experiment: AChE inhibition, Ellman method; format: biochemical; conditions: 500 µM
Method: (§1) The inhibition ability of tested compounds against human recombinant acetylcholinesterase (hrAChE) and human recombinant butyrylcholinesterase (hrBChE) was determined by standard Ellman method adapted for 96-well plate. The reaction mixture contained 10 µL of hrAChE (70 ng/mL protein final concentration) or hrBChE (220 ng/mL protein final concentration), 10 µL of tested compound (1, 10, 100, and 500 µM final concentration), 20 µL of 5,5′-dithiobis-2-nitrobenzoic acid (DTNB; 500 µM final concentration), and 60 µL of 20 mM Na-phosphate buffer (pH 7.4). The mixture was pre-incubated at 37 °C for 15 min and subsequently 10 µL substrate acetylthiocholine iodide (ATChI) or butyrylthiochiline iodide (BTChI) was added to the final concentration of 1000 µM[24]. The final volume of reaction mixture was 100 µL. The product formed during the reaction (5-thio-2-nitrobenzoic acid, TNB) was determined by measurement of its absorbance at 436 nm. The catalytic activity was evaluated as amount of product (%) formed by enzyme after 10 min of mixture incubation at 37 °C.

[6] = system: human recombinant butyrylcholinesterase (hrBChE); experiment: BChE inhibition, Ellman method; format: biochemical; conditions: 500 µM
Method: as §1

[7] = mice, i.p., 32 mA, pretreatment time 15 min, read-out: ED50 ± SEM
[8] = mice, i.p., 32 mA, pretreatment time 30 min, read-out: ED50 ± SEM
[9] = mice, i.p., 32 mA, pretreatment time 60 min, read-out: ED50 ± SEM
[10] = mice, i.p., 32 mA, pretreatment time 120 min, read-out: ED50 ± SEM
[11] = mice, i.p., pretreatment times 15 to 120 min, read-out: ED50, range over the time-course
[12] = 1 h incubation, read-out: KI hCA II (1h)
[13] = 6 h incubation, read-out: KI hCA II (6h)
[14] = incubation time not given, read-out: Ki CA II

| SMILES | ED50 ([1]; 0.5 h, within the first 30 min after i.p. administration, read-out: ED50 (constant activity)) | ED50 [1, 7] | ED50 [1, 8] | ED50 [1, 9] | ED50 [1, 10] | ED50 [1, 11] | Protective index (TD50/ED50) ([1]; pretreatment time 15 min) | Protective index (TD50/ED50) ([1]; pretreatment time 30 min) | Protective index (TD50/ED50) ([1]; pretreatment time 60 min) | Protective index (TD50/ED50) ([1]; pretreatment time 120 min) | Peak of anticonvulsant activity (time after i.p. administration) ([1]; mice, i.p.) | Relative viability vs. untreated cells (U-87 MG cells [2]) | ROS negative cells (U-87 MG cells [3]) | ROS positive cells (U-87 MG cells [3]) | cells with low mitochondrial membrane potential (ΔΨm) (U-87 MG cells [4]) | Ki (hCA II; [12]) | Ki (hCA II; [13]) | decrease of hrAChE activity [5] | hrBChE activity [6] | Ki (hCA II; [14]) |
| --- | --- | --- | --- | --- | --- | --- | --- | --- | --- | --- | --- | --- | --- | --- | --- | --- | --- | --- | --- | --- |
| Cc1ccc(-n2c(-c3cccc(Cl)c3)n[nH]c2=S)cc1 [TP-10, 5-(3-chlorophenyl)-4-(4-methylphenyl)-2,4-dihydro-3H-1,2,4-triazole-3-thione] | ~60 mg/kg | 62.6 ± 13.2 mg/kg | 61.1 ± 9.7 mg/kg | 170 ± 18.5 mg/kg | 168 ± 17.4 mg/kg | 61.1 to 170 mg/kg | 5.4 | 5.5 | 2.0 | 2.4 | 30 min | 99.16 ± 3.92% | 11.5% | 88.5% | 8.0% | 74.6 µM | > 100 µM | ~54% | 84% | – |
| CCCCCCn1c(-c2cccc(Cl)c2)n[nH]c1=S [TP-315, 5-(3-chlorophenyl)-4-hexyl-2,4-dihydro-3H-1,2,4-triazole-3-thione] | – | 61.3 ± 10.1 mg/kg | 59.7 ± 6.8 mg/kg | 68.1 ± 11 mg/kg | 136 ± 18.3 mg/kg | 59.7 to 136 mg/kg | 7.6 | 7.8 | 6.7 | 3.3 | 30 min | 98.82 ± 2.84% | 14.1% | 85.9% | 9.9% | > 100 µM | > 100 µM | ~66% | 59% | > 100 µM |
| CCCCCCn1c(Cc2cccc(Cl)c2)n[nH]c1=S [TP-427, 5-(3-chlorobenzyl)-4-hexyl-2,4-dihydro-3H-1,2,4-triazole-3-thione] | – | 40.9 ± 6.4 mg/kg | 46.6 ± 8.2 mg/kg | 51.6 ± 6.9 mg/kg | 64.9 ± 5.6 mg/kg | 40.9 to 64.9 mg/kg | >24.4 | >21.5 | 10.5 | 8.5 | 15 min | 98.53 ± 4.18% | 20.9% | 79.1% | 16.5% | > 100 µM | > 100 µM | ~61% | 78% | > 100 µM |
